# Source: patent publication EP1203770A1 (priority 1992, dated 1994)
# Where two headings read alike, the source gives them in different places.
# Biological target: T1, HIV-1 protease (Human immunodeficiency virus type 1 group M subtype B, UniProt P04585)
# T1 construct: The protease (or proteinase), consisting of only 99 amino acids, is among the smallest enzymes known
# Test: In vitro HIV protease inhibitory assay (HIV Protease FITC Assay)
# Assay type: biochemical
# Conditions: for inhibition at 1 µM: HIV-1 Dose 1.000 uM; for inhibition at 1 µM / inhibition at 10 µM / inhibition at 100 µM / inhibition at 0.41 µM / inhibition at 1.23 µM / inhibition at 3.7 µM / inhibition at 11 µM / inhibition at 33 µM / inhibition at 0.123 µM / inhibition at 0.37 µM / inhibition at 1.1 µM / inhibition at 3.3 µM / inhibition at 30 µM: read-out: HIV-1 Protease % Inhib; for inhibition at 100 µM: HIV-1 Dose 100.000 uM; for Ki: read-out: HIV-1 FITC Ki; for inhibition at 0.41 µM: HIV-1 Dose 0.410 uM; for inhibition at 1.23 µM: HIV-1 Dose 1.230 uM; for inhibition at 3.7 µM: HIV-1 Dose 3.700 uM; for inhibition at 11 µM: HIV-1 Dose 11.000 uM; for inhibition at 33 µM: HIV-1 Dose 33.000 uM
# In short: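 Biotin/FITC-labelled peptide substrate cleaved by HIV-1 protease for 1 h at room temperature in the dark, in 0.1 M sodium acetate pH 5.5, 1.0 M NaCl, 0.05% NP-40. Uncleaved substrate captured on avidin beads and separated by filtration; fluorescence gave % inhibition.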
Structure (SMILES),inhibition at 10 µM (HIV-1 Dose 10.000 uM) [%],inhibition at 100 µM [%],Ki [nM],inhibition at 0.41 µM [%],inhibition at 1.23 µM [%],inhibition at 3.7 µM [%],inhibition at 11 µM [%],inhibition at 33 µM [%],inhibition at 0.123 µM (HIV-1 Dose 0.123 uM) [%],inhibition at 0.37 µM (HIV-1 Dose 0.370 uM) [%],inhibition at 1.1 µM (HIV-1 Dose 1.100 uM) [%],inhibition at 3.3 µM (HIV-1 Dose 3.300 uM) [%],inhibition at 30 µM (HIV-1 Dose 30.000 uM) [%],other results
"COCCOCCCc1cc(O)c(C(c2ccccc2)C2CC2)c(=O)o1 (centres unmarked) [Example 102, 3-(Cyclopropyl-phenyl-methyl)-4-hydroxy-6-(3-(2-methoxy-ethoxy)-propyl)-pyran-2-one]",62.2,105,1520,,,,,,,,,,,inhibition at 1 µM: 33.8%
COCCOCCCc1oc(=O)c(C(c2ccccc2)C2CC2)c(O)c1CCOCCOC (centres unmarked) [Example 103],31.3,83,,,,,,,,,,,,inhibition at 1 µM: 26.6%
"CCCc1cc(O)c(C(c2ccccc2)C2CC2)c(=O)o1 (centres unmarked) [Example 104, 3-(Cyclopropyl-phenyl-methyl)-4-hydroxy-6-propyl-pyran-2-one]",73.2,87.3,,,,,,,,,,,,inhibition at 1 µM: 50%
"CCC(c1ccccc1)c1c(O)c(Br)c(CCc2ccccc2)oc1=O (centres unmarked) [Example 105, 5-Bromo-4-hydroxy-6-phenylethyl-3(1-phenyl-propyl)-pyran-2-one]",,108,458,14.3,38.9,75.3,103,110,,,,,,
"CCC(CCOCCOC)c1cc(O)c(C(c2ccccc2)C2CC2)c(=O)o1 (centres unmarked) [Example 106, 3-(Cyclopropyl-phenyl-methyl)-6-(1-ethyl-3-(2-methoxy-ethoxy)-propyl)-4-hydroxy-pyran-2-one]",,119,58,57.4,82.1,101,111,115,,,,,,
"COCCOCCC(Cc1ccccc1)c1cc(O)c(C(c2ccccc2)C2CC2)c(=O)o1 (centres unmarked) [Example 107, 6-(1-Benzyl-3-(2-methoxy-ethoxy)-propyl)-3-(cyclopropyl-phenyl-methyl)-4-hydroxy-pyran-2-one]",,110,41,50,80.3,100,103,109,,,,,,
COCCOCCOCCCc1cc(O)c(C(c2ccccc2)C2CC2)c(=O)o1 (centres unmarked) [Example 108],,118,607,< 10,20.4,46.9,76.7,84.8,,,,,,
"CCCc1oc(=O)c(C(CC)c2ccccc2)c(O)c1Br (centres unmarked) [Example 109, 5-Bromo-4-hydroxy-3-(1-phenyl-propyl)-6-propyl-pyran-2-one]",,108,203,22.2,51.8,78.9,106,105,,,,,,
"CCC(CC)c1oc(=O)c(C(c2ccccc2)C2CC2)c(O)c1CCOCCOC (centres unmarked) [Example 110, 3-(Cyclopropyl-phenyl-methyl)-6-(1-ethyl-propyl)-4-hydroxy-5-(2-(2-methoxy-ethoxy)ethyl)-pyran-2-one]",,84.3,,< 10,16.1,43.2,71.2,88.6,,,,,,
"CCC(Cc1ccccc1)c1oc(=O)c(C(CC)c2ccccc2)c(O)c1Br (centres unmarked) [Example 111, 6-(1-Benzyl-propyl)-5-bromo-4-hydroxy-3-(1-phenyl-propyl)-pyran-2-one]",,109,255,41.7,66.2,92.2,103,102,,,,,,
COCCOCCOCCc1c(C(CC2CC2)CC2CC2)oc(=O)c(C(c2ccccc2)C2CC2)c1O (centres unmarked) [Example 112],,46.5,,< 10,< 10,10.4,18.9,37.1,,,,,,
"C=CC(C1=C(O)CC2(CCC3(CC2)OCCO3)OC1=O)c1ccccc1 (centres unmarked) [Example 113, 12-Hydroxy-11-(1-phenyl-allyl)-1,4,9-trioxa-dispiro[4.2.5.2]pentadec-11-en-10-one]",,107,2560,< 10,15.3,42.8,79.7,101,,,,,,
"CCC(C1=C(O)CC2(CCC3(CC2)OCCO3)OC1=O)c1ccccc1 (centres unmarked) [Example 114, 12-Hydroxy-11-(1-phenyl-propyl)-1,4,9-trioxa-dispiro[4.2.5.2]pentadec-11-en-10-one]",,55.4,4290,< 10,< 10,25.8,63.5,67.5,,,,,,
"CCC(C1=C(O)CC2(CCC(=O)CC2)OC1=O)c1ccccc1 (centres unmarked) [Example 115, 4-Hydroxy-3-(1-phenyl-propyl)-1-oxa-spiro[5.5]undec-3-ene-2,9-dione]",,94.8,1160,< 10,27.1,56.9,91.5,103,,,,,,
"CCC(C1=C(O)CC2(CCC(O)CC2)OC1=O)c1ccccc1 (centres unmarked) [Example 116, 4,9-Dihydroxy-3-(1-phenyl-propyl)-1-oxa-spiro[5.5]undec-3-en-2-one]",62,,,,,,,,< 10,< 10,< 10,31.1,89.9,
"O=c1oc(CC(O)c2ccco2)cc(O)c1C(c1ccccc1)C1CC1 (centres unmarked) [Example 117, 3-(Cyclopropyl-phenyl-methyl)-6-(2-furan-2-yl-2-hydroxy-ethyl)-4-hydroxy-pyran-2]",87,,,,,,,,< 10,< 10,17,51.2,101,
"O=c1oc(CCCC(F)(F)F)cc(O)c1C(c1ccccc1)C1CC1 (centres unmarked) [Example 118, 3-(Cyclopropyl-phenyl-methyl)-4-hydroxy-6-(4,4,4-trifluoro-butyl)-pyran-2-one]",83.9,,,,,,,,< 10,< 10,20,52.4,102,
"O=c1oc(CCc2nnnn2C2CCCCC2)cc(O)c1C(c1ccccc1)C1CC1 (centres unmarked) [Example 119, 6-[2-(1-Cyclohexyl-1H-tetrazol-5-yl)-ethyl]-3-(cyclopropyl-phenyl-methyl)-4-hydroxy-2-one]",20.7,,,,,,,,< 10,< 10,< 10,< 10,60.3,
"CCC(C1=C(O)CC(Cc2ccccc2)(Cc2ccccc2)OC1=O)c1ccccc1 (centres unmarked) [Example 120, 6,6-Dibenzyl-4-hydroxy-3-(1-phenyl-propyl)-5,6-dihydro-pyran-2-one]",46.4,,,,,,,,< 10,< 10,10.1,26.2,60.1,
"C=CC(C1=C(O)CC2(CCOCC2)OC1=O)c1ccccc1 (centres unmarked) [Example 121, 4-Hydroxy-3-(1-phenyl-allyl)-1,9-dioxa-spiro[5.5]undec-3-en-2-one]",40.2,,,,,,,,< 10,< 10,< 10,10.8,68.5,
"Cc1cc(O)c(CC=Cc2ccccc2)c(=O)o1 [Example 122, 4-Hydroxy-6-methyl-3-(3-phenyl-prop-2-enyl)-2H-Pyran-2-one]",,26,,,,,,,,,,,,
"CCC(C1=C(O)CC2(CCC(=O)CC2)OC1=NO)c1ccccc1 (centres unmarked) [Example 123, 4-Hydroxy-3-(1-phenyl-propyl)-1-oxa-spiro[5.5]undec-3-ene-2,9-dione monooxime]",39.6,,,,,,,,< 10,< 10,< 10,14.8,72,
"CCC(Cc1ccccc1)c1cc(O)c(C2(c3ccccc3)CCC2)c(=O)o1 (centres unmarked) [Example 124, 4-Hydroxy-3-(1-phenylcyclobutyl)-6-[1-(phenylmethyl)propyl]-2H-pyran-2-one]",53.4,,,,,,,,< 10,< 10,< 10,27.5,64.8,
"C=CC(C1=C(O)CC2(CCCCCCC2)OC1=O)c1ccccc1 (centres unmarked) [Example 125, 4-Hydroxy-3-(1-phenyl-2-propenyl)-1-oxaspiro[5.7]tridec-3-en-2-one]",71,,,,,,,,< 10,< 10,15.4,45.7,89.7,
"CCC(C1=C(O)CC2(CCCCCCC2)OC1=O)c1ccccc1 (centres unmarked) [Example 126, 4-Hydroxy-3-(1-phenylpropyl)-1-oxaspiro[5.7]tridec-3-en-2-one]",,,,,,,,,,,,,,inhibition at 0.123 µM: < 10%; inhibition at 0.37 µM: < 10%; inhibition at 1.1 µM: 13.2%; inhibition at 3.3 µM: 42.9%; inhibition at 10 µM: 66.8%; inhibition at 30 µM: 81%
